Test results published in patent US8946234B2, “Halogen-substituted compounds” (Bayer CropScience AG, priority 2008, dated 2015).

Assays:
[1] = logP by HPLC on a C18 phase inversion column, EEC Directive 79/831 Annex V.A8, method a) (Agilent 1100, 10-95% acetonitrile in 4.25 min); type: physicochemical; details: read-out: logP
In short: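 Reversed-phase C18 HPLC (50×4.6 mm, 1.8 micron), 55 °C, 2.0 ml/min, acetonitrile/water with formic acid. Linear gradient 10% to 95% acetonitrile over 4.25 min, then 95% for 1.25 min. logP derived from retention per EEC Directive 79/831 Annex V.A8; MS detection.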

[2] = system: Phaedon cochleariae; assay: Phaedon test (PHAECO spray treatment); type: in vivo; details: foliar, application rate 500 g/ha, sprayed Chinese cabbage leaf discs, mustard beetle larvae, 100% = all larvae killed, read-out: effect in %
Protocol: [table] To produce a suitable active ingredient preparation, part by weight of active ingredient is mixed with the stated amounts of solvents and emulsifier, and the concentrate is diluted to the desired concentration with emulsifier-containing water. Discs of Chinese cabbage leaves (Brassica pekinensis) are sprayed with an active ingredient preparation of the desired concentration and, after drying, populated with larvae of the mustard beetle (Phaedon cochleariae). After the desired time, the effect in % is determined. Here, 100% means that all of the beetle larvae have been killed; 0% means that no beetle larvae have been killed.

[3] = log P from HPLC-MS, no method note printed; type: physicochemical; details: method not given
[4] = logP by HPLC on a C18 phase inversion column, EEC Directive 79/831 Annex V.A8, method b) (HP1100, 5-95% acetonitrile in 1.70 min); type: physicochemical; details: HPLC phase inversion (reversed-phase) C18 column; HPLC method b), eluent acetonitrile/water with formic acid
Protocol: ^b) Note regarding the determination of the log P values and mass detection: The log P values given were determined in accordance with EEC Directive 79/831 Annex V.A8 by HPLC (High Performance Liquid Chromatography) on a phase inversion column (C18). HP1100; 50*4.6 Zorbax Eclipse Plus C18 1.8 micron; eluent A: acetonitrile (0.1% formic acid); eluent B: water (0.08% formic acid); linear gradient from 5% acetonitrile to 95% acetonitrile in 1.70 min, then 95% acetonitrile for a further 1.00 min; oven temperature 55° C.; flow: 2.0 ml/min. The mass detection is carried out via the mass detector Micromass ZQ2000 from Waters.

[5] = HPLC phase inversion (reversed-phase) C18 column, HPLC method a), eluent acetonitrile/water with formic acid
[6] = HPLC phase inversion (reversed-phase) C18 column, HPLC, method a)

| Compound | chromatographic logP [3] | further results |
| --- | --- | --- |
| O=C(NC1CC1)c1cc(NC(=O)c2cnc(Cl)nc2C(F)(F)F)ccc1Cl [Ib-1, 2-chloro-N-[4-chloro-3-(cyclopropylcarbamoyl)phenyl]-4-(trifluoromethyl)pyrimidine-5-carboxamide] | – | chromatographic logP [1, 5]: 2.36; pest or weed control at 500 g/ha [2]: ≥ 80% |
| O=C(NC1CC1)c1cc(NC(=O)c2cnc(OCC(F)(F)F)cc2C(F)(F)F)ccc1Cl [Ij-1, N-[4-Chloro-3-(cyclopropylcarbamoyl)phenyl]-6-(2,2,2-trifluoroethoxy)-4-(trifluoromethyl)pyridine-3-carboxamide] | – | chromatographic logP [1, 5]: 3.02; pest or weed control at 500 g/ha [2]: ≥ 80% |
| Cn1nc(C(F)(F)C(F)(F)F)c(C(F)(F)F)c1C(=O)Nc1ccc(Cl)c(C(=O)NC2CC2)c1 [Ik-1, N-[4-Chloro-3-(cyclopropylcarbamoyl)phenyl]-1-methyl-3-(pentafluoroethyl)-4-(trifluoromethyl)-1H-pyrazole-5-carboxamide] | – | chromatographic logP [1, 5]: 3.34; chromatographic logP [1, 6]: 3.34; pest or weed control at 500 g/ha [2]: ≥ 80% |
| CCOC(=O)c1cnc(C(F)(F)F)nc1-c1ccccn1 [Ethyl 4-(pyridin-2-yl)-2-(trifluoromethyl)pyrimidine-5-carboxylate] | 3.09 | – |
| COC(=O)c1c(I)c(OCC(F)(F)F)nn1C [Methyl 4-iodo-1-methyl-3-(2,2,2-trifluoroethoxy)-1H-pyrazole-5-carboxylate] | 3.17 | – |
| C#CCNC(=O)c1cc(NC(=O)c2c(C(F)(F)F)c(C(F)(F)C(F)(F)F)nn2C)ccc1Cl [Ik-3, N-[4-Chloro-3-(prop-2-yn-1-ylcarbamoyl)phenyl]-1-methyl-3-(pentafluoroethyl)-4-(trifluoromethyl)-1H-pyrazole-5-carboxamide] | – | pest or weed control at 500 g/ha [2]: ≥ 80%; chromatographic logP [4]: 3.11 |
| O=C(NC1CC1)c1cc(NC(=O)c2cnc(C(F)(F)C(F)(F)F)nc2C(F)F)ccc1Cl [Ib-27, N-[4-Chloro-3-(cyclopropylcarbamoyl)phenyl]-4-(difluoromethyl)-2-(pentafluoroethyl)pyrimidine-5-carboxamide] | – | chromatographic logP [1, 5]: 2.92; pest or weed control at 500 g/ha [2]: ≥ 80% |
| Cn1nc(C(F)F)c(C(F)(F)F)c1C(=O)O [3-(Difluoromethyl)-1-methyl-4-(trifluoromethyl)-1H-pyrazole-5-carboxylic acid] | 1.1 | – |
| Cn1nc(OCC(F)(F)F)c(I)c1C(=O)O [4-Iodo-1-methyl-3-(2,2,2-trifluoroethoxy)-1H-pyrazole-5-carboxylic acid] | 2.11 | – |
| Cn1nc(C(F)(F)C(F)(F)F)c(I)c1C(=O)Nc1ccc(Cl)c(C(=O)NC2CC2)c1 [Ik-4, N-[4-Chloro-3-(cyclopropylcarbamoyl)phenyl]-1-methyl-3-(pentafluoroethyl)-4-iodo-1H-pyrazole-5-carboxamide] | – | chromatographic logP [1, 5]: 3.16; chromatographic logP [1, 6]: 3.15; pest or weed control at 500 g/ha [2]: ≥ 80% |
| CCOC(=O)c1c(C(F)(F)F)c(C=O)nn1C [Ethyl 3-formyl-1-methyl-4-(trifluoromethyl)-1H-pyrazole-5-carboxylate] | 2.4 | – |
| C=Cc1c(C(F)(F)C(F)(F)F)nn(C)c1C(=O)Nc1ccc(Cl)c(C(=O)NC2CC2)c1 [Ik-5, N-[4-Chloro-3-(cyclopropylcarbamoyl)phenyl]-1-methyl-3-(pentafluoroethyl)-4-ethenyl-1H-pyrazol-5-carboxamide] | – | chromatographic logP [1, 5]: 3.11; chromatographic logP [1, 6]: 3.11; pest or weed control at 500 g/ha [2]: ≥ 80% |
| Cc1nc(C(N)=O)c(C(F)(F)F)c(C(F)(F)C(F)(F)F)n1 [2-Methyl-6-(pentafluoroethyl)-5-(trifluoromethyl)pyrimidine-4-carboxamide] | 2.33 | – |
| Cn1nc(OCC(F)(F)F)c(F)c1C(=O)O [4-Fluoro-1-methyl-3-(2,2,2-trifluoroethoxy)-1H-pyrazole-5-carboxylic acid] | 1.83 | – |
| Cn1nc(OC(F)F)c(I)c1C(=O)O [4-Iodo-3-(difluoromethoxy)-1-methyl-1H-pyrazole-5-carboxylic acid] | 1.64 | – |
| CCOC(=O)c1c(I)c(C2CC2)nn1C [Ethyl 3-cyclopropyl-4-iodo-1-methyl-1H-pyrazole-5-carboxylate] | 3.56 | – |
| CCOC(=O)c1c(C(F)(F)F)c(C(F)F)nn1C [Ethyl 3-(difluoromethyl)-1-methyl-4-(trifluoromethyl)-1H-pyrazole-5-carboxylate] | 3.05 | – |
| CCOC(=O)c1c(C(F)(F)F)c(C2CC2)nn1C [Ethyl 3-cyclopropyl-1-methyl-4-(trifluoromethyl)-1H-pyrazole-5-carboxylate] | 3.66 | – |
| O=C(O)c1nccc(Cl)c1C(F)(F)F [4-Chloro-3-(trifluoromethyl)pyridine-2-carboxylic acid] | 1.16 | – |
| COC(=O)c1cc(-c2ccc(C(F)(F)F)cc2)nn1C [Methyl 1-methyl-3-[4-(trifluoromethyl)phenyl]-1H-pyrazole-5-carboxylate] | 3.82 | – |
| Cn1nc(OCC(F)(F)F)c(Cl)c1C(=O)O [4-Chloro-1-methyl-3-(2,2,2-trifluoroethoxy)-1H-pyrazole-5-carboxylic acid] | 2 | – |
| Cn1nc(C2CC2)c(C(F)(F)F)c1C(=O)O [3-Cyclopropyl-1-methyl-4-(trifluoromethyl)-1H-pyrazole-5-carboxylic acid] | 1.74 | – |
| Cn1nc(OC(F)F)c(Br)c1C(=O)O [4-Bromo-3-(difluoromethoxy)-1-methyl-1H-pyrazole-5-carboxylic acid] | 1.52 | – |
| O=C(O)c1sc(C(F)(F)C(F)(F)F)nc1C(F)(F)F [2-(Pentafluoroethyl)-4-(trifluoromethyl)-1,3-thiazole-5-carboxylic acid] | 2.06 | – |
| COC(=O)c1c(Cl)c(OC(F)F)nn1C [Methyl 4-chloro-3-(difluoromethoxy)-1-methyl-1H-pyrazole-5-carboxylate] | 2.57 | – |
| COC(=O)c1c(I)c(-c2ccc(C(F)(F)F)cc2)nn1C [Methyl 4-iodo-1-methyl-3-[4-(trifluoromethyl)phenyl]-1H-pyrazole-5-carboxylate] | 4.23 | – |
| CCOC(=O)c1c(C(F)(F)F)c(CO)nn1C [Ethyl-3-(hydroxymethyl)-1-methyl-4-(trifluoromethyl)-1H-pyrazole-5-carboxylate] | 1.74 | – |
| O=C(O)c1cnc(C(F)(F)F)nc1-c1ccccn1 [4-(Pyridin-2-yl)-2-(trifluoromethyl)pyrimidine-5-carboxylic acid] | 1.5 | – |
| O=C(NC1CC1)c1cc(NC(=O)c2cnc(OCC(F)(F)F)nc2C(F)(F)F)ccc1Cl [Ib-2] | – | chromatographic logP [1, 5]: 2.76; pest or weed control at 500 g/ha [2]: ≥ 80% |
